Tests used:
[1] = tested on: non-obese diabetic (NOD) mouse model of diabetes and Sjögren's Syndrome; assay: NOD mouse model: histology of salivary and lacrimal glands and pancreas; assay type: in vivo; settings: NOD mice, drinking water, 12 weeks, compared to control mice; for inflammation of the salivary and lacrimal glands (exocrine glands): corresponding to a human dose of about 10 g/day
Text: The anti-inflammatory effect of HMOs is investigated in the non-obese diabetic (NOD) mouse model of diabetes and Sjögren's Syndrome.
(§1) The mice are divided into four groups (n=8) with a control group receiving standard tap water, and the three treatment groups receiving supplementation with 2′-FL, mixture of 2′-FL and DFL (in a 4:1 ratio by weight), or 6′-SL in the drinking water, corresponding to a human daily dose of about 10 grams (calculated by metabolic rate and daily water consumption of NOD mice strains).
(§2) The mice receive the treatment for 12 weeks with bi-weekly water changes. From 12 weeks of age, the blood-glucose levels of the mice are checked weekly. Mice with blood-glucose levels above 7 mmol/l are closely monitored and euthanised (and excluded from the study) if their blood glucose levels increase to ≥12 mmol/l on two consecutive measurements.
(§3) After 12 weeks treatment the mice are euthanised, and the following are sampled; serum, pancreas, salivary glands, Haarderian lacrimal glands, extraorbital lacrimal glands, as well as caecum and colon content.
The salivary and lacrimal glands are analysed by measuring the total area of inflammatory foci in relation to the total gland size on eight (salivary glands) and two (lacrimal glands) haematoxylin and eosin-stained paraffin-embedded sections per mouse. The pancreas is similarly analysed using histological sections scoring a minimum of 25 (preferably 50) islets of Langerhans for the degree of insulitis with a score ranging from 0-3 (0=no insulitis, 1=peri-insulitis, 2=infiltratory insulitis compromising ≤50% of the islet, 3=infiltratory insulitis compromising ≥50% of the islet).

[2] = NOD mouse model: short chain fatty acids in caecum content and serum; assay type: in vivo; settings: NOD mice, 12 weeks; for acetate concentration in serum: compared to control animals
Text: as §1, §2, §3
Caecum content and serum are used to measure the concentration of short chain fatty acids, namely acetate, propionate and butyrate. Faecal samples obtained at baseline together with colon content sampled after euthanasia are used for 16S rRNA genomic sequencing of the microbiota.

Row | Molecule | insulitis of the pancreas [1] | inflammation of the salivary and lacrimal glands (exocrine glands) [1] | acetate concentration in serum [2] | acetate concentration in caecum [2] | concentration of caecum butyrate [2]
1 | 2′-fucosyllactose [2′-FL] | reduced | reduce | increases |  | 
2 | CC(=O)N[C@H]1[C@H]([C@H](O)[C@H](O)CO)O[C@@](OC[C@H]2O[C@@H](O[C@H]3[C@H](O)[C@@H](O)[C@H](O)O[C@@H]3CO)[C@H](O)[C@@H](O)[C@H]2O)(C(=O)O)C[C@@H]1O [6′-SL, 6′-sialyllactose] | reduced | reduce | increase | increase | increase
